# Calls of active or inactive are those of the source. The rule behind the calls is not given here.
# Assays:
# [1] = tested on: DU-145; assay: Antiproliferative activity against human DU-145 cells assessed as inhibition of cell proliferation incubated for 72 hrs by MTT assay; type: functional, cell-based; conditions: DU-145, 72 h
# [2] = tested on: U-937; assay: Antiproliferative activity against human U-937 cells assessed as inhibition of cell proliferation at 100 uM incubated for 24 to 72 hrs by MTT assay; type: functional, cell-based; conditions: time 24-72 hrs, TDE = time-dependent effect
# [3] = tested on: K562; assay: Antiproliferative activity against human K562 cells assessed as inhibition of cell proliferation at 100 uM incubated for 24 to 72 hrs by MTT assay; type: functional, cell-based; conditions: time 24-72 hrs, TDE = time-dependent effect
# [4] = molecular target: DNMT3B (Homo sapiens, UniProt Q9UBC3); assay: Inhibition of N-terminal His-tagged human DNMT3B (564 to 853 residues)/N-terminal GST-tagged human DNMT3L (160 to 387 residues) co-expressed in baculovirus infected Sf9 cells assessed as DNA methylation using DNA oligonucleotide IDT-01 as substrate preincubated for 15 mins followed by substrate addition in presence of [3H]-SAM and measured after 4 hrs by radioactive methylation assay
# [5] = tested on: DU-145; assay: Antiproliferative activity against human DU-145 cells assessed as inhibition of cell proliferation at 0.1 to 100 uM incubated upto 72 hrs by MTT assay; type: functional, cell-based; conditions: dose 0.1-100 µM
# [6] = tested on: K562; assay: Antiproliferative activity against human K562 cells assessed as inhibition of cell proliferation incubated for 72 hrs by MTT assay; type: functional, cell-based; conditions: K562, 72 h
# [7] = Cytotoxicity activity against human PBMC cells assessed as inhibition of cell proliferation incubated for 72 hrs by MTT assay; type: toxicity, cell-based
# [8] = molecular target: DNA (cytosine-5)-methyltransferase 3A (Homo sapiens) (UniProt Q9Y6K1); assay: Inhibition of DNMT3A in human HCT-116 cells assessed as downregulation of DNMT3A protein level at 1 uM incubated for 72 hrs by Western blot analysis; type: cell-based
# Chain of DNA (cytosine-5)-methyltransferase 3A (Homo sapiens) (Q9Y6K1 whole entry, looked up, the tested form may be a part): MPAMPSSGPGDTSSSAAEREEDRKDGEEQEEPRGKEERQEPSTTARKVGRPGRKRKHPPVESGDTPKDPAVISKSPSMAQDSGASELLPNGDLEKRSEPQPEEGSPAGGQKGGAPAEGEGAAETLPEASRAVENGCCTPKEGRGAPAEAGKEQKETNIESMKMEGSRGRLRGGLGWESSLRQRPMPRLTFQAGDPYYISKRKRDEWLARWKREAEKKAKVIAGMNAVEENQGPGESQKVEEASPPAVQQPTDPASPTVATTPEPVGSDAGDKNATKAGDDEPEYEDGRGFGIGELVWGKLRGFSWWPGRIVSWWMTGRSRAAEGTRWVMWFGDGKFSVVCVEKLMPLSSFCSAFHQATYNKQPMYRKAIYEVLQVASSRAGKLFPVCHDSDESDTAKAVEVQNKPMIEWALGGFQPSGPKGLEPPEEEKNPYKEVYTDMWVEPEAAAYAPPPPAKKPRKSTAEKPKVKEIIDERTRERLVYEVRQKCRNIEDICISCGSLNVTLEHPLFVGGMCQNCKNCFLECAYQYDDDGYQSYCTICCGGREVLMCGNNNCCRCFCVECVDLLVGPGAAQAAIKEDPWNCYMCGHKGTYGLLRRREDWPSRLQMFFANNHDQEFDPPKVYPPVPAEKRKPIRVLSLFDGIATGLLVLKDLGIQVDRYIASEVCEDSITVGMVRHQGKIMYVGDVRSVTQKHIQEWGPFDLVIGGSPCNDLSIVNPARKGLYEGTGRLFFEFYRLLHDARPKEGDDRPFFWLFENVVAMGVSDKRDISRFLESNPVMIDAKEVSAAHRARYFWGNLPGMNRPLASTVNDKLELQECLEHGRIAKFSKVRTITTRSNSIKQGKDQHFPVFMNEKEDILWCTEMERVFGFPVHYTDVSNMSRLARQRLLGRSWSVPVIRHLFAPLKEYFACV
# [9] = molecular target: T1, DNMT3A2/3L complex (Homo sapiens) (UniProt Q9Y6K1+Q9UJW3); assay: (§1) Inhibition of N-terminal His-tagged human DNMT3A (623 to 912 residues)/N-terminal GST-tagged human DNMT3L (160 to 387 residues) co-expressed in baculovirus infected Sf9 cells assessed as DNA methylation using DNA oligonucleotide IDT-01 as substrate at 10 uM preincubated for 15 mins followed by substrate addition in presence of [3H]-SAM and measured after 4 hrs by radioactive methylation assay; conditions: time 255.0 min
# T1 sequence (Q9UJW3 whole entry, looked up, the tested form may be a part): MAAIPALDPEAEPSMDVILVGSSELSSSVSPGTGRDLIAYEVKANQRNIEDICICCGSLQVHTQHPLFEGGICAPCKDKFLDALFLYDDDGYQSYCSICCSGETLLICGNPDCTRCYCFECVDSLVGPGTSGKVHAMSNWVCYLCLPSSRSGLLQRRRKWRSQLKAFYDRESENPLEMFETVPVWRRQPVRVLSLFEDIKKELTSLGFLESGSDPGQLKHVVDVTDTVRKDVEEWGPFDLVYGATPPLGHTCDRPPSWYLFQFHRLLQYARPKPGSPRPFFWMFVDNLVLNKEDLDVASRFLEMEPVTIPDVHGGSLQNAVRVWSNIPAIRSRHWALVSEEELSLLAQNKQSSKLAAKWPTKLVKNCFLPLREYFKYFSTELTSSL
# T1 sequence (Q9Y6K1 whole entry, looked up, the tested form may be a part): as the sequence (Q9Y6K1 whole entry, looked up, the tested form may be a part) above
# [10] = tested on: THP-1; assay: Antiproliferative activity against human THP-1 cells assessed as inhibition of cell proliferation at 100 uM incubated for 24 to 72 hrs by MTT assay; type: functional, cell-based; conditions: time 24-72 hrs, TDE = time-dependent effect
# [11] = tested on: A549; assay: cells; conditions: Homo sapiens, A549, 72 h
# Description: Antiproliferative activity against human A549 cells assessed as inhibition of cell proliferation incubated for 72 hrs by MTT assay
# [12] = molecular target: T2, Histone-lysine N-methyltransferase EHMT2 (Homo sapiens, UniProt Q96KQ7); assay: Inhibition of N-terminal GST-tagged human G9a expressed in baculovirus infected Sf9 cells using biotinylated histone H3 peptide as substrate preincubated for 15 mins followed by substrate addition in presence of SAM and measured after 60 mins by AlphaLISA assay
# T2 sequence (Q96KQ7 whole entry): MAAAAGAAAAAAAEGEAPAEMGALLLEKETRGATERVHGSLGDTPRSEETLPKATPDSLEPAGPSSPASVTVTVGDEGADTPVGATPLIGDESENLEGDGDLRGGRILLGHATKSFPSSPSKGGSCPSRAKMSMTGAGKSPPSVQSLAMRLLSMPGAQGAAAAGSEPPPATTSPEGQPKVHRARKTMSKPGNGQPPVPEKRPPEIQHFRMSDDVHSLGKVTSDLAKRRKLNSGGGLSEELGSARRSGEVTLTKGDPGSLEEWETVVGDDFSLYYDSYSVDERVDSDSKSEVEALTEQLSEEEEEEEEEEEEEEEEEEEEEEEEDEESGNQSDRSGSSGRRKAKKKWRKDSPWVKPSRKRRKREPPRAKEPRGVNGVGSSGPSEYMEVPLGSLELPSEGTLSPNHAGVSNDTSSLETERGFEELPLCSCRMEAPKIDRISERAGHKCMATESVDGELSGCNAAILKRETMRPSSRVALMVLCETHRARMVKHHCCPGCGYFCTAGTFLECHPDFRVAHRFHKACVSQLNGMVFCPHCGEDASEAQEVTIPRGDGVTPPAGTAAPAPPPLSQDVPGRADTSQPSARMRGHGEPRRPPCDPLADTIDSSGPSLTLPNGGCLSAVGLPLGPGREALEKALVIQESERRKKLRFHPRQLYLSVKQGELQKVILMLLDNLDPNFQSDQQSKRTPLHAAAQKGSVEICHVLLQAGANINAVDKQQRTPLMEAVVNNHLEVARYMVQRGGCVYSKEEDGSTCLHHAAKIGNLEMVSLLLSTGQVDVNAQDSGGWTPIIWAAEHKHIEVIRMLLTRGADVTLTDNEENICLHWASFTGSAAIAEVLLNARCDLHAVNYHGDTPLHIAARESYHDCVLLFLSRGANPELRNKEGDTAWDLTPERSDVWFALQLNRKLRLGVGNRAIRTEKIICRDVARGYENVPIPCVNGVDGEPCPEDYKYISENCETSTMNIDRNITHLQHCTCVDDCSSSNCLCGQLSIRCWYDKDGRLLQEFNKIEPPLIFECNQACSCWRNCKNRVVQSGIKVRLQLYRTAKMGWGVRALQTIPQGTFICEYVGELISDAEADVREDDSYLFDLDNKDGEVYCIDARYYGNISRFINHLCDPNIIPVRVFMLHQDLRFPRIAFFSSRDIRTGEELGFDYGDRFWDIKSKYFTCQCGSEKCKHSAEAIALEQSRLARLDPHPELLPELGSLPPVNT
# [13] = tested on: U-937; assay: Antiproliferative activity against human U-937 cells assessed as inhibition of cell proliferation at 0.1 to 100 uM incubated upto 72 hrs by MTT assay; type: functional, cell-based; conditions: dose 0.1-100 µM
# [14] = tested on: U-937; assay: cells; conditions: Homo sapiens, U-937, 72 h
# Description: Antiproliferative activity against human U-937 cells assessed as inhibition of cell proliferation incubated for 72 hrs by MTT assay
# [15] = tested on: THP-1; assay: Antiproliferative activity against human THP-1 cells assessed as inhibition of cell proliferation incubated for 72 hrs by MTT assay; type: functional, cell-based; conditions: THP-1, 72 h
# [16] = tested on: DU-145; assay: Antiproliferative activity against human DU-145 cells assessed as inhibition of cell proliferation at 100 uM incubated for 24 to 72 hrs by MTT assay; type: functional, cell-based; conditions: time 24-72 hrs, TDE = time-dependent effect
# [17] = tested on: HCT-116; assay: Antiproliferative activity against human HCT-116 cells assessed as inhibition of cell proliferation at 100 uM incubated for 24 to 72 hrs by MTT assay; type: functional, cell-based; conditions: time 24-72 hrs, TDE = time-dependent effect
# [18] = tested on: HCT-116; assay: cells; conditions: Homo sapiens, HCT-116, 72 h
# Description: Antiproliferative activity against human HCT-116 cells assessed as inhibition of cell proliferation incubated for 72 hrs by MTT assay
# [19] = tested on: THP-1; assay: Antiproliferative activity against human THP-1 cells assessed as inhibition of cell proliferation at 0.1 to 100 uM incubated upto 72 hrs by MTT assay; type: functional, cell-based; conditions: dose 0.1-100 µM
# [20] = tested on: A549; assay: Antiproliferative activity against human A549 cells assessed as inhibition of cell proliferation at 100 uM incubated for 24 to 72 hrs by MTT assay; type: functional, cell-based; conditions: time 24-72 hrs, TDE = time-dependent effect
# [21] = molecular target: DNA (cytosine-5)-methyltransferase 1 (Homo sapiens, UniProt P26358); assay: Inhibition of N-terminal GST-tagged full-length recombinant human DNMT1 assessed as DNA methylation using pdI-pdC DNA as substrate preincubated for 15 mins followed by substrate addition in presence of [3H]-SAM and measured after 150 mins by radioactive methylation assay
# Chain of DNA (cytosine-5)-methyltransferase 1 (P26358 whole entry, the tested form may be a part): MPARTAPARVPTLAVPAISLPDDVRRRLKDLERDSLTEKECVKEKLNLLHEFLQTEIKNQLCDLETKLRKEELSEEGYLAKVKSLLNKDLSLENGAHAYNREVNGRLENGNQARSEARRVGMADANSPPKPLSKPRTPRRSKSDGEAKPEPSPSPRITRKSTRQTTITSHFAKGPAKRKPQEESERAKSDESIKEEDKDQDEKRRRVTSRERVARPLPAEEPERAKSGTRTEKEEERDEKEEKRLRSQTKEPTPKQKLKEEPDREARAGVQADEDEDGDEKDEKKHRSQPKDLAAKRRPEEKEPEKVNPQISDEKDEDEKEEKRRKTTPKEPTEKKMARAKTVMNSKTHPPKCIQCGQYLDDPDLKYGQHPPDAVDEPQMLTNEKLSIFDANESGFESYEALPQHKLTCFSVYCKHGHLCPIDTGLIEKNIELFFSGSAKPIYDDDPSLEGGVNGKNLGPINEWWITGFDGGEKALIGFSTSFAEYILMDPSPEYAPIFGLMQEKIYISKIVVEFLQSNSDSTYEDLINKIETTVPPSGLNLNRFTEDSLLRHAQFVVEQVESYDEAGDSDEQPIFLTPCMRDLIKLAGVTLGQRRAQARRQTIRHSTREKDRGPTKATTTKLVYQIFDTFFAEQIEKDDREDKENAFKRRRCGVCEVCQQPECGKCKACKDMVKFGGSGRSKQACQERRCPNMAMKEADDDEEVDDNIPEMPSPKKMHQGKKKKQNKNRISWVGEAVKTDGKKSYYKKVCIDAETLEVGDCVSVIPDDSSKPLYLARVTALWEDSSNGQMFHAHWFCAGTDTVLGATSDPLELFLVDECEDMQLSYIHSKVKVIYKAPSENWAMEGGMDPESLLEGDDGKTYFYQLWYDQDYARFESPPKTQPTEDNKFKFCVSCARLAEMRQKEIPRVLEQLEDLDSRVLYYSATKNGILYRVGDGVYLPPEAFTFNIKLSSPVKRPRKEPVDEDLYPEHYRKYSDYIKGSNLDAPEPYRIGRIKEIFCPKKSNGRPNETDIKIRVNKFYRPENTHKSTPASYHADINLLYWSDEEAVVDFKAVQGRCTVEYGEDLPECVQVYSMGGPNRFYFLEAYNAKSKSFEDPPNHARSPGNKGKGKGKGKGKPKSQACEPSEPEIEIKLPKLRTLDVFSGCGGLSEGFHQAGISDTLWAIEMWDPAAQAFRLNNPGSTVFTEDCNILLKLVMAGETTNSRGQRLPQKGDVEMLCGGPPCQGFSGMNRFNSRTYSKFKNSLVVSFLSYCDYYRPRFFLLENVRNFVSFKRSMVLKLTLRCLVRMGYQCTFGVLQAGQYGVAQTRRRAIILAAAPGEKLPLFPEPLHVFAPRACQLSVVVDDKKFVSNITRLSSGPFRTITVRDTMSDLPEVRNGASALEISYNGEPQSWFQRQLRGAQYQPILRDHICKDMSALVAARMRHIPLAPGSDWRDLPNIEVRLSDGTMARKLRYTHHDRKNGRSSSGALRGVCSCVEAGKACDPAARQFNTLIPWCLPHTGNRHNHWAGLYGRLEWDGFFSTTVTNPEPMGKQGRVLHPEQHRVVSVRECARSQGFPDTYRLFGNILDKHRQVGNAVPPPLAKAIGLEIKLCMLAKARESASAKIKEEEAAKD
# [22] = molecular target: T1, DNMT3A2/3L complex (Homo sapiens); assay: Competitive inhibition of N-terminal His-tagged human DNMT3A (623 to 912 residues)/N-terminal GST-tagged human DNMT3L (160 to 387 residues) co-expressed in baculovirus infected Sf9 cells assessed as DNA methylation using varying concentration of oligonucleotide IDT-01 as substrate preincubated for …; conditions: time 255.0 min
# [23] = molecular target: T1, DNMT3A2/3L complex (Homo sapiens); assay: as §1, with “100” for “10”; conditions: time 255.0 min
# [24] = molecular target: DNA (cytosine-5)-methyltransferase 3A (Homo sapiens) (UniProt Q9Y6K1); assay: Inhibition of DNMT3A in human HCT-116 cells assessed as increase in p53 protein level at 1 uM incubated for 72 hrs by Western blot analysis; type: cell-based
# [25] = tested on: HCT-116; assay: Antiproliferative activity against human HCT-116 cells assessed as inhibition of cell proliferation at 0.1 to 100 uM incubated upto 72 hrs by MTT assay; type: functional, cell-based; conditions: dose 0.1-100 µM
# [26] = tested on: A549; assay: Antiproliferative activity against human A549 cells assessed as inhibition of cell proliferation at 0.1 to 100 uM incubated upto 72 hrs by MTT assay; type: functional, cell-based; conditions: dose 0.1-100 µM
# [27] = tested on: K562; assay: Antiproliferative activity against human K562 cells assessed as inhibition of cell proliferation at 0.1 to 100 uM incubated upto 72 hrs by MTT assay; type: functional, cell-based; conditions: dose 0.1-100 µM
IC50 [1] [nM],IC50 [4] [nM],IC50 [6] [nM],inhibition [8],inhibition [9] [%],IC50 [11] [nM],IC50 [12] [nM],IC50 [14] [nM],IC50 [15] [nM],IC50 [18] [nM],SMILES,Activity [2],Activity [3],Activity [5],IC50 at 72 h [7] [nM],Activity [10],Activity [13],Activity [16],Activity [17],Activity [19],Activity [20],also measured
1700,105000,500,Active,83.8,2100,> 500000,700,700,300,Cc1oc2ncn(CCN3CCCC3)c(=O)c2c1C(=O)Nc1ccc(S(N)(=O)=O)nc1,Tde,Tde,Dose-Dependent Effect,91000,Tde,Dose-Dependent Effect,Tde,Tde,Dose-Dependent Effect,Tde,IC50 [21]: 13000 nM; inhibition [22]: Active; inhibition [23]: 93.1%; p53 protein level increase (active/not active) [24]: Active; Activity [25]: Dose-Dependent Effect; Activity [26]: Dose-Dependent Effect; Activity [27]: Dose-Dependent Effect
3700,220000,1600,Active,74.7,4600,> 500000,2300,1800,500,Cc1oc2ncn(CCN(C)C)c(=O)c2c1C(=O)Nc1ccc(S(N)(=O)=O)nc1,Tde,Tde,Dose-Dependent Effect,131000,Tde,Dose-Dependent Effect,Tde,Tde,Dose-Dependent Effect,Tde,IC50 [21]: 20900 nM; inhibition [23]: 81.8%; p53 protein level increase (active/not active) [24]: Active; Activity [25]: Dose-Dependent Effect; Activity [26]: Dose-Dependent Effect; Activity [27]: Dose-Dependent Effect

# — ChEMBL document CHEMBL5352402, “Discovery of novel non-nucleoside inhibitors with high potency and selectivity for DNA methyltransferase 3A” (Eur J Med Chem, 2022)
